Test results from patent publication US4284769A, “Preparation of triazinyl nitriles” (priority 1975, dated 1981).

Key:
[1] = Polymerization constant Kp of radical initiators in styrene (dilatometer); settings: initiator 0.05% by weight for poorly soluble ones, normally 0.2%
Method: (§1) In these examples the reactivities are determined of the radical initiators and polymerization initiators according to the invention and some known radical initiators. The reactivity is indicated with the polymerization constant Kp. The latter is very much dependent on the temperature and occurs in the formula Rp=Kp (M) (I)^1/2 where Rp is the polymerization speed, (M) the concentration of the monomer and (I) the concentration of the radical initiator (see "Die Makromolekulare Chemie" 157 (1972), p.279 ff). In all determinations 50 ml. of the monomer were mixed with the radial initiators listed in the following Table and transferred to a dilatometer. The dilatometer was cooled to -80° C., filled with nitrogen, followed by applying vacuum to it; the last two treatments were repeated three times. Then the dilatometer was placed in a thermostated bath which had been set to the polymerization temperature mentioned in the table below. The concentration values were determined in accordance with the standard dilatometric technique (see "Angewandte Chemie" 59 (1947), p90). From the values obtained the conversion and the Kp-values were successively determined. The Table below gives the values obtained for the compounds are prepared in the Examples I through VII. For comparison also the Kp-values of some known radical initiators, namely, α,α'-bis(methoxycarbo)α,α'-bis(p-methylphenyl)succinonitrile(dl) (IX), dilauroyl peroxide (X), di-t-butyl perpivalate (XI) and tert. butyl peroxypivalate (XII) are listed in the Table.
(§2) Because of the poor solubility of some of the radical initiators prepared in the preceding examples, the determination of the Kp-value was started from 0.05% by weight, whereas normally 0.2% by weight is included in the monomer to be polymerized. The Kp-values of other radical initiators in styrene are listed in the Tables 2 and 3 on page 283 of the aforementioned article in "Die Makromolekulare Chemie".

[2] = Polymerization constant Kp of radical initiators in methylmethacrylate (dilatometer); settings: initiator 0.05% by weight for poorly soluble ones, normally 0.2%
Method: as §1, §2

## Cc1ccc(C(C#N)(c2nc(N3CCCCC3)nc(N3CCCCC3)n2)C(C#N)(c2ccc(C)cc2)c2nc(N3CCCCC3)nc(N3CCCCC3)n2)cc1 (stereo not drawn) [VI, α,α'-bis(p-methylphenyl) α,α'-bis (2,4-dipiperidino-1,3,5-triazine)succinonitrile]
[1]; temperature 80 °C
  Kp-value × 10^4: 1.60
[1]; temperature 90 °C
  Kp-value × 10^4: 3.56
[2]; temperature 50 °C
  Kp-value × 10^4: no polymerization
[2]; temperature 60 °C
  Kp-value × 10^4: no polymerization

## COC(=O)[C@](C#N)(c1ccc(C)cc1)[C@](C#N)(C(=O)OC)c1ccc(C)cc1 (relative stereo) [IX, α,α'-bis(methoxycarbo)α,α'-bis(p-methylphenyl)succinonitrile(dl), reference compound]
[1]; temperature 70 °C
  Kp-value × 10^4: 1.3
[1]; temperature 80 °C
  Kp-value × 10^4: 3.4

## CCCCCCCCCCCC(=O)OOC(=O)CCCCCCCCCCC [X, dilauroyl peroxide, reference compound]
[1]; temperature 70 °C
  Kp-value × 10^4: 2.4
[1]; temperature 80 °C
  Kp-value × 10^4: 5.8

## COc1ccc(C(C#N)(c2nc(OC)nc(OC)n2)C(C#N)(c2ccc(OC)cc2)c2nc(OC)nc(OC)n2)cc1 (stereo not drawn) [Example IV, α,α'-bis(p-methoxyphenyl)α,α'-bis(2,4-dimethoxy-1,3,5-triazine)succinonitrile]
[2]; temperature 50 °C
  Kp-value × 10^4: 1.1
[2]; temperature 60 °C
  Kp-value × 10^4: 2.7

## CC(C)(C)OOC(=O)C(C)(C)C [XI, di-t-butyl perpivalate, reference compound]
[1]; temperature 70 °C
  Kp-value × 10^4: 4.2
[1]; temperature 80 °C
  Kp-value × 10^4: 10.1

## COc1nc(OC)nc(C(C#N)(c2ccc(C)cc2)C(C#N)(c2ccc(C)cc2)c2nc(OC)nc(OC)n2)n1 (stereo not shown) [I + II]
[2]; temperature 50 °C
  Kp-value × 10^4: 3.85
[2]; temperature 60 °C
  Kp-value × 10^4: 7.5

## CCCCCCCCCCCCCCCCCCOc1nc(OCCCCCCCCCCCCCCCCCC)nc(C(C#N)(c2ccc(C)cc2)C(C#N)(c2ccc(C)cc2)c2nc(OCCCCCCCCCCCCCCCCCC)nc(OCCCCCCCCCCCCCCCCCC)n2)n1 (stereo not drawn) [Example V, α,α'-bis(p-tolyl)α,α'-bis(2,4-distearoxy-1,3,5-triazine)succinonitrile]
[1]; temperature 70 °C
  Kp-value × 10^4: 3.05
[1]; temperature 80 °C
  Kp-value × 10^4: 7.86
[2]; temperature 50 °C
  Kp-value × 10^4: 2.32
[2]; temperature 60 °C
  Kp-value × 10^4: 4.48

## CSc1nc(SC)nc(C(C#N)(c2ccc(C)cc2)C(C#N)(c2ccc(C)cc2)c2nc(SC)nc(SC)n2)n1 (stereo not drawn) [Example III, α,α'-bis(p-methylphenyl)α,α'-bis(2,4-dimethylthio-1,3,5-triazine)succinonitrile]
[2]; temperature 50 °C
  Kp-value × 10^4: 2.85
[2]; temperature 60 °C
  Kp-value × 10^4: 5.92

## COc1nc(OC)nc(C(C#N)(c2ccc(Cl)cc2)C(C#N)(c2ccc(Cl)cc2)c2nc(OC)nc(OC)n2)n1 (stereo not drawn) [VII, α,α'-bis(p-chorophenyl)α,α'-bis(2,4-dimethoxy-1,3,5-triazine)succinonitrile]
[1]; temperature 70 °C
  Kp-value × 10^4: 6.10
[1]; temperature 80 °C
  Kp-value × 10^4: 5.70
[2]; temperature 50 °C
  Kp-value × 10^4: 2.10
[2]; temperature 60 °C
  Kp-value × 10^4: 5.52

## CC(C)(C)OOC(=O)C(C)(C)C [XII, tert. butyl peroxypivalate, reference compound]
[2]; temperature 50 °C
  Kp-value × 10^4: 3.0
